Experimental data: US12565497B2 (Hoffmann-La Roche Inc., priority 2020, dated 2026)

What follows are molecules tested against Recombinant human Mat2a (Homo sapiens (Human), UniProt P31153) (assay: Determination of Mat2A activity (384 well absorbance-based assay, Biomol Green)). Conditions: 12.5 nM Mat2A, 100 μM ATP and Methionine, 2% DMSO, 120 minutes at RT, absorbance at 635 nm; read-out: MAT2A_LEC IC50 (uM) (Num).
Sequence of Recombinant human Mat2a (P31153 whole entry): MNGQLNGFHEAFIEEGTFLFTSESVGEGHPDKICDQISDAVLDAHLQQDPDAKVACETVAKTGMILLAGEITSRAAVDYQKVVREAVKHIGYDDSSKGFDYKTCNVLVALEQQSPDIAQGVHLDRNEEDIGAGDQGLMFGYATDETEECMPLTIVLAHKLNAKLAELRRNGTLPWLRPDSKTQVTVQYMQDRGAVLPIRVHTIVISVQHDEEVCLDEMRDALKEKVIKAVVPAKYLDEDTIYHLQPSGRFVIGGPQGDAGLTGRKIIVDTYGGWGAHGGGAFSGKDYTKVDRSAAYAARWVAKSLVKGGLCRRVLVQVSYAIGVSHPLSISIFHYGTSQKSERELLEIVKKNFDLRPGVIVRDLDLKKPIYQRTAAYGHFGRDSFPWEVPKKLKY
Type: biochemical
Description: Determination of Mat2A Activity
Measurement of Mat2A inhibition is performed in 384 well format absorbance-based assay. Recombinant human Mat2a (12.5 nM) and serial diluted compounds in DMSO (range of concentrations from 10 μM to 508 pM) or controls (DMSO) are incubated for 15 minutes at room temperature (RT) in assay buffer containing 50 mM HEPES pH 7.5, 50 mM KCl, 50 mM MgCl2, 0.01%Tween 20 and 10 mM DTT. The reaction is initiated by the addition of the combined substrates ATP and Methionine, each at a final concentration of 100 μM. Final assay condition are 12.5 nM Mat2A, 100 μM ATP and Methionine Substrates and 2% DMSO. After 120 minutes of incubation at RT, the reaction is stopped by the addition of Biomol Green. The absorbance signal is measured at λ=635 nm with a multiplate reader (BMG Pherastar reader or equivalent) after 30 min of equilibration at RT.
`CCS(=O)(=O)c1ccc(-c2c(C#N)ncc3[nH]nc(C4CC4)c23)cc1C` [Example 42, 3-cyclopropyl-4-(4-ethylsulfonyl-3-methyl-phenyl)-1H-pyrazolo[3,4-c]pyridine-5-carbonitrile] gave an IC50 of less than 0.013 µM.
`Cc1cc(-c2c(C#N)ncc3[nH]nc(C4CC4)c23)ccc1S(=O)(=O)C1CC1` [Example 43, 3-cyclopropvl-4-(4-cyclopropylsulfonyl-3-methyl-phenyl)-1H-pyrazolo[3,4-c]pyridine-5-carbonitrile] showed an IC50 of less than 0.013 µM.
`Cc1cc(-c2c(S(C)(=O)=O)ccc3[nH]nc(C(F)(F)F)c23)ccc1S(C)(=O)=O` [Example 44, 4-(3-methyl-4-(methylsulfonyl)phenyl)-5-(methylsulfonyl)-3-(trifluoromethyl)-1H-indazole] was tested, and the IC50 was 0.017 µM.
In the case of `Cc1cc(-c2c(C#N)ccc3[nH]cc(C4CC4)c23)ccc1S(C)(=O)=O` [Example 45, 3-cyclopropyl-4-(3-methyl-4-methylsulfonylphenyl)-1H-indole-5-carbonitrile], the IC50 is reported as 0.02 µM.
In the case of `CNC(=O)c1ncc2[nH]nc(C3CC3)c2c1-c1ccc(S(=O)(=O)C2CC2)c(C)c1` [Example 46, 3-cyclopropyl-4-(4-cyclopropylsulfonyl-3-methyl-phenyl)-N-methyl-1H-pyrazolo[3,4-c]pyridine-5-carboxamide], the IC50 is reported as less than 0.013 µM.
`Cc1cc(-c2c(C#N)ncc3[nH]nc(C4CC4)c23)c(F)cc1S(C)(=O)=O` [Example 47, 3-cyclopropyl-4-(2-fluoro-5-methyl-4-methylsulfonyl-phenyl)-1H-pyrazolo[3,4-c]pyridine-5-carbonitrile] gave an IC50 of 0.017 µM.
`CN(C)S(=O)(=O)c1ccc(-c2nccc3[nH]nc(OC(F)F)c23)cc1C(F)F` [Example 48, 4-[3-(difluoromethoxy)-1H-pyrazolo[4,3-c]pyridin-4-yl]-2-(difluoromethvl)-N,N-dimethyl-benzenesulfonamide] was tested, and the IC50 was 0.13 µM.
`Cc1cc(-c2c(C#N)ncc3[nH]nc(C4CC4)c23)ccc1S(=O)(=O)C(F)F` [Example 50, 3-cyclopropyl-4-[4-(difluoromethylsulfonyl)-3-methyl-phenyl]-1H-pyrazolo[3,4-c]pyridine-5-carbonitrile] gave an IC50 of less than 0.013 µM.
Molecule `CNC(=O)c1ncc2[nH]nc(C3CC3)c2c1-c1ccc(S(C)(=O)=O)c(C(F)F)c1` [Example 51, 3-cyclopropyl-4-[3-(difluoromethyl)-4-methylsulfonyl-phenyl]-N-methyl-1H-pyrazolo[3,4-c]pyridine-5-carboxamide] has an IC50 of less than 0.013 µM.
`Cc1cc(-c2c(C#N)ncc3[nH]nc(OC(F)F)c23)ccc1S(C)(=O)=O` [Example 52, 3-(difluoromethoxy)-4-(3-methyl-4-methylsulfonyl-phenyl)-1H-pyrazolo[3,4-c]pyridine-5-carbonitrile] gave an IC50 of less than 0.013 µM.
Work on `Cc1cc([S+](C)[O-])c(C(F)F)cc1-c1c(C#N)ncc2[nH]nc(OC(F)F)c12` (stereo not shown) [Example 53, 3-(difluoromethoxy)-4-[5-(difluoromethyl)-2-methyl-4-methylsulfinyl-phenyl]-1H-pyrazolo[3,4-c]pyridine-5-carbonitrile] yielded an IC50 of 0.062 µM.
For `COc1ncc2[nH]nc(C(F)(F)F)c2c1-c1ccc(S(C)(=O)=O)c(C(F)F)c1` [Example 54, 4-[3-(difluoromethyl)-4-methylsulfonyl-phenyl]-5-methoxy-3-(trifluoromethyl)-1H-pyrazolo[3,4-c]pyridine], the IC50 was 0.015 µM.
`Cc1cc(-c2c(S(C)(=O)=O)ccc3[nH]nc(OC(F)F)c23)ccc1S(=O)(=O)C1CC1` [Example 55, 4-(4-cyclopropylsulfonyl-3-methyl-phenyl)-3-(difluoromethoxy)-5-methylsulfonyl-1H-indazole] showed an IC50 of less than 0.013 µM.
Work on `Cc1cc(-c2nccc3[nH]nc(Br)c23)ccc1S(C)(=O)=O` [Example 56, 3-bromo-4-(3-methyl-4-(methylsulfonyl)phenyl)-1H-pyrazolo[4,3-c]pyridine] yielded an IC50 of 0.19 µM.
`Cc1cc(-c2nccc3[nH]nc(OC(F)F)c23)ccc1S(C)(=O)=O` [Example 57, 3-(difluoromethoxy)-4-(3-methyl-4-(methylsulfonyl)phenyl)-1H-pyrazolo[4,3-c]pyridinepyridine] was tested, and the IC50 was less than 0.013 µM.
Molecule `COc1n[nH]c2ccnc(-c3ccc(S(C)(=O)=O)c(C)c3)c12` [Example 58, 3-methoxy-4-(3-methyl-4-(methylsulfonyl)phenyl)-1H-pyrazolo[4,3-c]pyridine] has an IC50 of 0.24 µM.
`CS(=O)(=O)c1ccc(-c2nccc3[nH]nc(C4CC4)c23)cc1N` [Example 59, 5-(3-cyclopropyl-1H-pyrazolo[4,3-c]pyridin-4-yl)-2-(methylsulfonyl)aniline] gave an IC50 of 0.26 µM.
`Cc1cc(-c2nccc3[nH]nc(S(C)(=O)=O)c23)ccc1S(C)(=O)=O` [Example 60, 4-(3-methyl-4-(methylsulfonyl)phenyl)-3-(methylsulfonyl)-1H-pyrazolo[4,3-c]pyridine] was tested, and the IC50 was 0.29 µM.
Work on `Cc1cc(-c2nccc3[nH]nc(C#N)c23)ccc1S(C)(=O)=O` [Example 61, 4-(3-methyl-4-(methylsulfonyl)phenyl)-1H-pyrazolo[4,3-c]pyridine-3-carbonitrile] yielded an IC50 of 0.25 µM.
Molecule `Cc1cc(-c2c(C(=O)O)ncc3[nH]nc(C4CC4)c23)ccc1S(C)(=O)=O` [Example 62, 3-cyclopropyl-4-(3-methyl-4-(methylsulfonyl)phenyl)-1H-pyrazolo[3,4-c]pyridine-5-carboxylic acid] has an IC50 of less than 0.013 µM.
With `Cc1cc(-c2c(C#N)ccc3[nH]nc(C4CC4)c23)ccc1S(C)(=O)=O` [Example 63, 3-cyclopropyl-4-(3-methyl-4-methylsulfonylphenyl)-1H-indazole-5-carbonitrile] the IC50 was less than 0.013 µM.
In the case of `Cc1cc(-c2ncc(O)c3[nH]nc(C4CC4)c23)ccc1S(C)(=O)=O` [Example 64, 3-cyclopropyl-4-(3-methyl-4-methylsulfonyl-phenyl)-1H-pyrazolo[4,3-c]pyridin-7-ol], the IC50 is reported as 0.2 µM.
Work on `Cc1cc(-c2nccc3[nH]nc(-c4ccsc4)c23)ccc1S(C)(=O)=O` [Example 65, 4-(3-methyl-4-(methylsulfonyl)phenyl)-3-(thiophen-3-yl)-1H-pyrazolo[4,3-c]pyridine] yielded an IC50 of 0.52 µM.
In the case of `CCOc1n[nH]c2ccnc(-c3ccc(S(C)(=O)=O)c(C)c3)c12` [Example 66, 3-ethoxy-4-(3-methyl-4-methylsulfonyl-phenyl)-1H-pyrazolo[4,3-c]pyridine], the IC50 is reported as 0.13 µM.
In the case of `Cc1cc(-c2ncc(F)c3[nH]nc(C4CC4)c23)ccc1S(C)(=O)=O` [Example 67, 3-cyclopropyl-7-fluoro-4-(3-methyl-4-methylsulfonyl-phenyl)-1H-pyrazolo[4,3-c]pyridine], the IC50 is reported as 0.025 µM.
Molecule `COc1n[nH]c2ccc(C#N)c(-c3ccc(S(C)(=O)=O)c(C)c3)c12` [Example 68, 3-methoxy-4-(3-methyl-4-(methylsulfonyl)phenyl)-1H-indazole-5-carbonitrile] has an IC50 of less than 0.013 µM.
Molecule `Cc1cc(-c2c(C#N)ccc3[nH]nc(OC(F)F)c23)ccc1S(C)(=O)=O` [Example 69, 3-(difluoromethoxy)-4-(3-methyl-4-(methylsulfonyl)phenyl)-1H-indazole-5-carbonitrile] has an IC50 of less than 0.013 µM.
Work on `COc1cc2[nH]nc(C3CC3)c2c(-c2ccc(S(C)(=O)=O)c(C)c2)n1` [Example 70, 3-cyclopropyl-6-methoxy-4-(3-methyl-4-methylsulfonylphenyl)-1H-pyrazolo[4,3-c]pyridine] yielded an IC50 of 0.061 µM.
`Cc1cc(-c2nccc3[nH]nc(OC(F)(F)F)c23)ccc1S(C)(=O)=O` [Example 71, 4-(3-methyl-4-(methylsulfonyl)phenyl)-3-(trifluoromethoxy)-1H-pyrazolo[4,3-c]pyridine] showed an IC50 of less than 0.013 µM.
In the case of `Cc1cc(-c2c(C(N)=O)ncc3[nH]nc(C4CC4)c23)ccc1S(C)(=O)=O` [Example 72, 3-cyclopropyl-4-(3-methyl-4-(methylsulfonyl)phenyl)-1H-pyrazolo[3,4-c]pyridine-5-carboxamide], the IC50 is reported as less than 0.013 µM.
Molecule `CNC(=O)c1ncc2[nH]nc(C3CC3)c2c1-c1ccc(S(C)(=O)=O)c(C)c1` [Example 73] has an IC50 of less than 0.013 µM.
Work on `Cc1cc(-c2nncc3[nH]nc(C4CC4)c23)ccc1S(C)(=O)=O` [Example 74, 3-cyclopropyl-4-(3-methyl-4-(methylsulfonyl)phenyl)-1H-pyrazolo[3,4-d]pyridazine] yielded an IC50 of 0.11 µM.
`CSc1ccc2[nH]nc(C3CC3)c2c1-c1ccc(S(C)(=O)=O)c(C)c1` [Example 75, 3-cyclopropyl-4-(3-methyl-4-(methylsulfonyl)phenyl)-5-(methylthio)-1H-indazole] gave an IC50 of 0.013 µM.
For `Cc1cc(-c2c([S+](C)[O-])ccc3[nH]nc(C4CC4)c23)ccc1S(C)(=O)=O` (stereo not shown) [Example 76, 3-cyclopropyl-4-(3-methyl-4-(methylsulfonyl)phenyl)-5-(methylsulfinyl)-1H-indazole], the IC50 was 0.26 µM.
`Cc1cc(-c2c(S(C)(=O)=O)ccc3[nH]nc(C4CC4)c23)ccc1S(C)(=O)=O` [Example 77, 3-cyclopropyl-4-(3-methyl-4-(methylsulfonyl)phenyl)-5-(methylsulfonyl)-1H-indazole] was tested, and the IC50 was 0.013 µM.
`Cc1cc(-n2c(=O)ccc3[nH]nc(OC(F)F)c32)ccc1S(C)(=O)=O` [Example 78, 3-(difluoromethoxy)-4-(3-methyl-4-methylsulfonyl-phenyl)-1H-pyrazolo[4,3-b]pyridin-5-one] showed an IC50 of less than 0.013 µM.
`Cc1cc(-c2c(C(F)(F)F)ncc3[nH]nc(C4CC4)c23)ccc1S(C)(=O)=O` [Example 79, 3-cyclopropyl-4-(3-methyl-4-methylsulfonylphenyl)-5-(trifluoromethyl)-1H-pyrazolo[3,4-c]pyridine] gave an IC50 of less than 0.013 µM.
